In PubChem BioAssay AID2060891 (Molecular Pharmacology Branch, DTP, NCI, 2025):
pIC50: −log10 of the molar value.

System: K98450-129-R-PDC complex spheroid growth, percent test/control
Experiment: Anticancer human tumor K98450-129-R-PDC patient-derived colon adenocarcinoma cell line growth inhibition [RAS]
Conditions: for pIC50: curve of first compound; for viability, T/C: stronger effect = lower value
Summary of the method: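 Multi-cell-type spheroids: tumor cells plus HUVEC endothelial cells and mesenchymal stem cells. RAS-pathway inhibitors were combined with targeted agents, each dosed in half-log steps down from clinical Cmax, or from 10 microM when Cmax was unknown.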

[1] = second compound 0.000949 µM, first compound 0.0316 µM
[2] = second compound 0.000949 µM, first compound 0.1 µM
[3] = second compound 0.000949 µM, first compound 0.316 µM
[4] = second compound 0.000949 µM, first compound 1 µM
[5] = second compound 0.003 µM, first compound 0.0316 µM
[6] = second compound 0.003 µM, first compound 0.1 µM
[7] = second compound 0.003 µM, first compound 0.316 µM
[8] = second compound 0.003 µM, first compound 1 µM
[9] = second compound 0.00949 µM, first compound 0.0316 µM
[10] = second compound 0.00949 µM, first compound 0.1 µM
[11] = second compound 0.00949 µM, first compound 0.316 µM
[12] = second compound 0.00949 µM, first compound 1 µM
[13] = second compound 0.03 µM, first compound 0.0316 µM
[14] = second compound 0.03 µM, first compound 0.1 µM
[15] = second compound 0.03 µM, first compound 0.316 µM
[16] = second compound 0.03 µM, first compound 1 µM
[17] = second compound 0.0949 µM, first compound 0.0316 µM
[18] = second compound 0.0949 µM, first compound 0.1 µM
[19] = second compound 0.0949 µM, first compound 0.316 µM
[20] = second compound 0.0949 µM, first compound 1 µM
[21] = second compound 0.3 µM, first compound 0.0316 µM
[22] = second compound 0.3 µM, first compound 0.1 µM
[23] = second compound 0.3 µM, first compound 0.316 µM
[24] = second compound 0.3 µM, first compound 1 µM
[25] = second compound 0.000949 µM, first compound 3.16 µM
[26] = second compound 0.000949 µM, first compound 10 µM
[27] = second compound 0.003 µM, first compound 3.16 µM
[28] = second compound 0.003 µM, first compound 10 µM
[29] = second compound 0.00949 µM, first compound 3.16 µM
[30] = second compound 0.00949 µM, first compound 10 µM
[31] = second compound 0.03 µM, first compound 3.16 µM
[32] = second compound 0.03 µM, first compound 10 µM
[33] = second compound 0.0949 µM, first compound 3.16 µM
[34] = second compound 0.0949 µM, first compound 10 µM
[35] = second compound 0.3 µM, first compound 3.16 µM
[36] = second compound 0.3 µM, first compound 10 µM
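Also: spheroids exposed to agents for seven days before the viability readout.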
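For viability, T/C in this document: luminescence used as a proxy for viable cell amount.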

## CCN1CCN(Cc2ccc(Nc3ncc(F)c(-c4cc(F)c5nc(C)n(C(C)C)c5c4)n3)nc2)CC1 + CCn1c(-c2cc(N3CCN(C)CC3)cnc2C(C)OC)c2c3cc(ccc31)-c1csc(n1)CC(NC(=O)C1CC1C)C(=O)N1CCCC(N1)C(=O)OCC(C)(C)C2
Second compound 0.000949 µM
  pIC50: < 6.00
Second compound 0.003 µM
  pIC50: 6.14
Second compound 0.00949 µM
  pIC50: 7.14
Second compound 0.03 µM
  pIC50: 7.63
Second compound 0.0949 µM
  pIC50: > 8.50
Second compound 0.3 µM
  pIC50: > 8.50
Second compound 0.000949 µM, first compound 0.00316 µM
  viability, T/C: 75.8%
Second compound 0.000949 µM, first compound 0.01 µM
  viability, T/C: 83%
[1]
  viability, T/C: 90.9%
[2]
  viability, T/C: 80.8%
[3]
  viability, T/C: 65.6%
[4]
  viability, T/C: 65.6%
Second compound 0.003 µM, first compound 0.00316 µM
  viability, T/C: 95.1%
Second compound 0.003 µM, first compound 0.01 µM
  viability, T/C: 85.8%
[5]
  viability, T/C: 72.5%
[6]
  viability, T/C: 71%
[7]
  viability, T/C: 54.1%
[8]
  viability, T/C: 47.6%
Second compound 0.00949 µM, first compound 0.00316 µM
  viability, T/C: 79.8%
Second compound 0.00949 µM, first compound 0.01 µM
  viability, T/C: 64.1%
[9]
  viability, T/C: 59.2%
[10]
  viability, T/C: 47.7%
[11]
  viability, T/C: 38.6%
[12]
  viability, T/C: 33.2%
Second compound 0.03 µM, first compound 0.00316 µM
  viability, T/C: 49.8%
Second compound 0.03 µM, first compound 0.01 µM
  viability, T/C: 51.8%
[13]
  viability, T/C: 49.7%
[14]
  viability, T/C: 27.2%
[15]
  viability, T/C: 24.4%
[16]
  viability, T/C: 25.9%
Second compound 0.0949 µM, first compound 0.00316 µM
  viability, T/C: 18.8%
Second compound 0.0949 µM, first compound 0.01 µM
  viability, T/C: 18.5%
[17]
  viability, T/C: 17.3%
[18]
  viability, T/C: 14.1%
[19]
  viability, T/C: 18.4%
[20]
  viability, T/C: 22.8%
Second compound 0.3 µM, first compound 0.00316 µM
  viability, T/C: 10.8%
Second compound 0.3 µM, first compound 0.01 µM
  viability, T/C: 13.6%
[21]
  viability, T/C: 11.3%
[22]
  viability, T/C: 12.7%
[23]
  viability, T/C: 16.3%
[24]
  viability, T/C: 23.1%

## Cc1nc(N2CCC3(CC2)COC(C)C3N)c(CO)nc1Sc1ccnc(N)c1Cl (stereo unspecified) + CCn1c(-c2cc(N3CCN(C)CC3)cnc2C(C)OC)c2c3cc(ccc31)-c1csc(n1)CC(NC(=O)C1CC1C)C(=O)N1CCCC(N1)C(=O)OCC(C)(C)C2
Second compound 0.000949 µM
  pIC50: 5.85
Second compound 0.003 µM
  pIC50: 6.19
Second compound 0.00949 µM
  pIC50: 6.65
Second compound 0.03 µM
  pIC50: > 7.50
Second compound 0.0949 µM
  pIC50: > 7.50
Second compound 0.3 µM
  pIC50: > 7.50
[1]
  viability, T/C: 99.3%
[2]
  viability, T/C: 71.3%
[3]
  viability, T/C: 80.2%
[4]
  viability, T/C: 55.4%
[25]
  viability, T/C: 35.8%
[26]
  viability, T/C: 16.7%
[5]
  viability, T/C: 89%
[6]
  viability, T/C: 64.3%
[7]
  viability, T/C: 61.8%
[8]
  viability, T/C: 51.8%
[27]
  viability, T/C: 22%
[28]
  viability, T/C: 11%
[9]
  viability, T/C: 64.3%
[10]
  viability, T/C: 53.4%
[11]
  viability, T/C: 48.2%
[12]
  viability, T/C: 19.5%
[29]
  viability, T/C: 8.78%
[30]
  viability, T/C: 7.55%
[13]
  viability, T/C: 38.6%
[14]
  viability, T/C: 39.2%
[15]
  viability, T/C: 14.5%
[16]
  viability, T/C: 8.49%
[31]
  viability, T/C: 8.08%
[32]
  viability, T/C: 6.16%
[17]
  viability, T/C: 15.2%
[18]
  viability, T/C: 13.1%
[19]
  viability, T/C: 10.9%
[20]
  viability, T/C: 9.07%
[33]
  viability, T/C: 6.17%
[34]
  viability, T/C: 4%
[21]
  viability, T/C: 10.7%
[22]
  viability, T/C: 11.6%
[23]
  viability, T/C: 9.12%
[24]
  viability, T/C: 7.56%
[35]
  viability, T/C: 6.68%
[36]
  viability, T/C: 5.63%

## NC1c2ccccc2OC12CCN(c1cnc3c(N4CCCc5ncccc54)n[nH]c3n1)CC2 (stereo unspecified) + CCn1c(-c2cc(N3CCN(C)CC3)cnc2C(C)OC)c2c3cc(ccc31)-c1csc(n1)CC(NC(=O)C1CC1C)C(=O)N1CCCC(N1)C(=O)OCC(C)(C)C2
Second compound 0.000949 µM
  pIC50: 6.94
Second compound 0.003 µM
  pIC50: 7.20
Second compound 0.00949 µM
  pIC50: > 7.50
Second compound 0.03 µM
  pIC50: > 7.50
Second compound 0.0949 µM
  pIC50: > 7.50
Second compound 0.3 µM
  pIC50: > 7.50
[1]
  viability, T/C: 85.1%
[2]
  viability, T/C: 54.5%
[3]
  viability, T/C: 20.4%
[4]
  viability, T/C: 8.29%
[25]
  viability, T/C: 8.32%
[26]
  viability, T/C: 8.57%
[5]
  viability, T/C: 69.2%
[6]
  viability, T/C: 37.2%
[7]
  viability, T/C: 8.71%
[8]
  viability, T/C: 5.81%
[27]
  viability, T/C: 5.89%
[28]
  viability, T/C: 8.17%
[9]
  viability, T/C: 44.1%
[10]
  viability, T/C: 11.7%
[11]
  viability, T/C: 6.79%
[12]
  viability, T/C: 5.19%
[29]
  viability, T/C: 5.86%
[30]
  viability, T/C: 7.32%
[13]
  viability, T/C: 15.4%
[14]
  viability, T/C: 9.39%
[15]
  viability, T/C: 6.76%
[16]
  viability, T/C: 6.09%
[31]
  viability, T/C: 6.31%
[32]
  viability, T/C: 7.21%
[17]
  viability, T/C: 10.1%
[18]
  viability, T/C: 7.59%
[19]
  viability, T/C: 5.43%
[20]
  viability, T/C: 4.79%
[33]
  viability, T/C: 4.55%
[34]
  viability, T/C: 7.03%
[21]
  viability, T/C: 9.29%
[22]
  viability, T/C: 7.37%
[23]
  viability, T/C: 5.01%
[24]
  viability, T/C: 4.13%
[35]
  viability, T/C: 4.98%
[36]
  viability, T/C: 5.88%
